Experimental findings from patent US7718671B2, “Substituted arylthiourea derivatives useful as inhibitors of viral replication” (Achillion Pharmaceuticals, Inc., priority 2003, dated 2010) are described below.

This assay has as its system Hepatitis C replicon. In words: HCV replicon assay (NPT level by captured ELISA in replicon-containing cells). The class given is cell-based. Conditions: Hepatitis C virus, 72 h; Huh-7 HCV replicon-containing cells, three days incubation. The protocol: The compounds claimed herein were tested for the ability to inhibit viral replication of the Hepatitis C replicon in cultured cells in which the HCV replicon construct has been incorporated. The HCV replicon system was described by Bartenschlager, et. al (Science, 285, pp. 110-113 (1999)). The replicon system is predictive of in vivo anti-HCV activity; compounds that are active in humans uniformly evidence activity in the replicon assay.
HCV replicon-containing cells are treated with different concentrations of interferon alpha, a known inhibitor of HCV replication, as a positive control and with different concentrations of the test compound. The replicon assay system includes Neomycin Phosphotransferase (NPT) as a component of the replicon itself in order to detect the transcription of replicon gene products in the host cell. Cells in which the HCV is actively replicating have high levels of NPT; the level of NPT is proportional to HCV replication. […] The NPT level of each sample is measured using a captured ELISA.
A protocol for testing compounds for the ability to inhibit viral replication of the Hepatitis C replicon cultured cells in which the replicon construct has been incorporated, follows.
9A. HCV Replicon and Replicon Expression
The HCV genome consists of a single ORF that encodes a 3000 amino acid polyprotein. The ORF is flanked on the 5′ side by an untranslated region that serves as an internal ribosome entry site (IRES) and at the 3′ side by a highly conserved sequence necessary for viral replication (3′-NTR). The structural proteins, necessary for viral infection, are located near the 5′ end of the ORF. The non-structural proteins, designated NS2 to NS5B comprise the remainder of the ORF.
The HCV replicon contains, 5′-3′, the HCV-IRES, the neomycin phosphotransferase (neo) gene, the IRES of encephalomyocarditis virus, which directs translation of HCV sequences NS3 to NS5B, and the 3′-NTR. The sequence of the HCV replicon has been deposited in GenBank (Accession no. AJ242652).
The replicon is transfected into Huh-7 cells using standard methods such as electroporation.
The equipment and materials include, but are not limited to, Huh-7 HCV replicon-containing cells, maintenance media (DMEM (Dulbecco's modified Eagle media) supplemented with 10% FBS, L-glutamine, non-essential amino acids, penicillin (100 units/ml), streptomycin (100 micrograms/ml), and 500 micrograms/ml of Geneticin G418), screening media (DMEM supplemented with 10% FBS, L-glutamine, and non-essential amino acid, penicillin (100 units/ml) and streptomycin (100 micrograms/ml)), 96 well tissue culture plates (flat bottom), 96 well plates (U bottom for drug dilution), Interferon alpha for positive control, fixation reagent (such as methanol: acetone), primary antibody (rabbit anti-NPTII), secondary antibody: Eu—N1l, and enhancement solution.
HCV replicon-containing cells support high levels of viral RNA replicon replication when their density is suitable. Over confluency will cause a decrease of viral RNA replication. Therefore, cells must be kept growing in log phase in the presence of 500 micrograms/ml of G418. Generally, cells should be passed twice a week at 1: 4-6 dilution. Cell maintenance is conducted as follows:
HCV replicon-containing cells are examined under a microscope to ensure that cells growing well. Cells are rinsed once with PBS and 2 ml trypsin is added. The cell/trypsin mixture is incubated at 37° C. in a CO2 incubator for 3-5 minutes. After incubation 10 ml of complete media is added to stop the trypsinization reaction. Cells are blown gently, put into a 15 ml tube, and spun at 1200 rpm for 4 minutes. The trypsin/medium solution is removed. Medium (5 ml) is added and the cells are mixed carefully. The cells are counted.
The cells are then seeded onto 96-well plates at a density of 6000-7500 cells/100 ul/well (6-7.5×10^5 cells/10 ml/plate). The plates are then incubated at 37° C. in a 5% CO2 incubator. […]
(In antiviral work, replicon cells carry a viral genome segment that copies itself.)
Broadly, the EC50 is the midpoint of the concentration-response curve. Take `NC(=S)NCc1ccc(-c2ccccc2)cc1` [Compound 57, 1-(4-phenylbenzyl)thiourea]: the EC50 is below 1 µM.
Next, `CCCCc1ccc(CNC(N)=S)cc1` [Compound 59, 1-(4-butylbenzyl)thiourea]: below 1 µM.
Next, `NC(=S)Nc1cccc(OCCc2ccccc2)c1` [Compound 21, 1-(3-(phenethyloxy)phenyl)thiourea]: below 1 µM.
For `NC(=S)Nc1ccc2c(c1)OC(c1ccccc1)O2` (stereo not drawn) [Compound 19, 1-(2-phenylbenzo[d]-[1,3]dioxol-6-yl)thiourea], the EC50 was below 1 µM.
Turning to `NC(=S)Nc1cccc(-c2ccccc2)c1` [Compound 22, 1-(3-(phenyl)phenyl)thiourea], the EC50 was below 1 µM.
Then `NC(=S)NCc1ccc(Oc2ccccc2)cc1` [Compound 55, 1-(4-phenoxybenzyl)thiourea], with below 1 µM; and `NC(=S)Nc1ccc(OCc2ccccc2)cc1` [Compound 28, 1-(4-(benzyloxy)phenyl)thiourea], with below 1 µM; and `Cc1cc(NC(N)=S)ccc1N1CCCCC1` [Compound 51, 1-(3-(methyl)-4-(piperidin-1-yl)phenyl)thiourea], with below 1 µM.
Next, `NC(=S)Nc1cccc(OCc2ccc(-c3ccccc3)cc2)c1` [Compound 15, 1-(3-(4-phenylbenzyloxy)phenyl)thiourea]: below 1 µM.
Then `CCC[C@H]1CC[C@H](c2ccc(NC(N)=S)cc2)CC1` [Compound 31, 1-(4-((1s,4r)-4-propylcyclohexyl)phenyl)thiourea], with below 1 µM; and `CCCCCc1ccc(NC(N)=S)cc1` [Compound 7, 1-(4-Pentyl-phenyl)-thiourea], with below 1 µM; and `NC(=S)Nc1ccc(N2CCCCC2)c(C(F)(F)F)c1` [Compound 32, 1-(3-(trifluoromethyl)-4-(piperidin-1-yl)phenyl)thiourea], with below 1 µM.
`NC(=S)Nc1ccc(N2CCc3ccccc3C2)c(F)c1` [Compound 24, 1-(3-fluoro-4-(3,4-dihydro-isoquinolin-2(1H)-yl)phenyl)thiourea]: the half-maximal effective concentration (EC50) is below 1 µM.
Next, `CCCCCC[C@H]1CC[C@H](c2ccc(NC(N)=S)cc2)CC1` [Compound 29, 1-(4-((1s,4r)-4-hexylcyclohexyl)phenyl)thiourea]: below 1 µM; `CCCCC#Cc1ccc(NC(N)=S)cc1` [Compound 33, 1-(4-(hex-1-ynyl)phenyl)thiourea]: below 1 µM.
With `NC(=S)NCc1cccc(-c2ccccc2)c1` [Compound 56, 1-(3-phenylbenzyl)thiourea], the EC50 was below 1 µM.
Next, `NC(=S)Nc1cccc(Oc2ccccc2)c1` [Compound 3, 1-(3-Phenoxy-phenyl)-thiourea]: below 1 µM; `NC(=S)Nc1ccc(N2CCC3CCCCC3C2)cc1` (stereo not drawn) [Compound 26, 1-(4-(octahydroisoquinolin-2(1H)-yl)phenyl)thiourea]: below 1 µM.
`CCCCCOc1ccc(NC(N)=S)cc1F` [Compound 12, 1-(3-Fluoro-(4-Pentyloxy)-phenyl)-thiourea] displayed an EC50 below 1 µM.
Next, `NC(=S)Nc1ccc(N2CCc3ccccc3C2)cc1` [Compound 25, 1-(4-(3,4-dihydro-isoquinolin-2(1H)-yl)phenyl)thiourea]: below 1 µM; `C[C@H](Oc1cccc(NC(N)=S)c1)c1ccccc1` [Compound 16, 1-(3-((S)-1-phenylethoxy)phenyl)thiourea]: below 1 µM.
`C[C@@H](Oc1cccc(NC(N)=S)c1)c1ccccc1` [Compound 20, 1-(3-((R)-1-phenylethoxy)phenyl)thiourea] showed an EC50 below 1 µM.
Then `CCCCCCCOc1ccc(NC(N)=S)cc1C(F)(F)F` [Compound 39, 1-(4-(heptyloxy)-3-(trifluoromethyl)phenyl)thiourea], with below 1 µM.
The compound `NC(=S)Nc1cccc(NCC2CCCCC2)c1` [Compound 52, 1-(3-(cyclohexylmethylamino)phenyl)thiourea] came in with an EC50 below 1 µM.
Take `NC(=S)Nc1ccc(N2CCC(c3ccccc3)CC2)c(F)c1` [Compound 54, 1-(3-fluoro-4-(4-phenylpiperidin-1-yl)phenyl)thiourea]: the EC50 was below 1 µM.
Then `CCCCCOc1ccc(NC(N)=S)cc1` [Compound 6, 1-(4-Pentyloxy-phenyl)-thiourea], with below 1 µM; and `CCCCCCC12CCC(c3ccc(NC(N)=S)cc3)(CC1)CC2` [Compound 30, 1-(4-(4-hexylbicyclo[2.2.2]octan-1-yl)phenyl)thiourea], with below 1 µM; and `NC(=S)Nc1cccc(OCc2cccc(C(F)(F)F)c2)c1` [Compound 53, 1-(3-(3-(trifluoromethyl)benzyloxy)phenyl)thiourea], with below 1 µM.
Then `NC(=S)Nc1cccc(Cc2ccccc2)c1` [Compound 5, 1-(3-Benzyl-phenyl)-thiourea], with below 1 µM; and `NC(=S)Nc1ccc(-c2ccccc2)cc1` [Compound 23, 1-(4-(phenyl)phenyl)thiourea], with below 1 µM; and `COc1cccc(Cc2cccc(NC(N)=S)c2)c1` [Compound 35, 1-(3-(3-methoxybenzyl)phenyl) thiourea], with below 1 µM.
As for `NC(=S)Nc1cccc(OC2Cc3ccccc3C2)c1` [Compound 13, 1-(3-(indan-2-yloxy)phenyl)thiourea], the EC50 was below 1 µM.
Then `NC(=S)Nc1cccc(OCc2ccc(F)c(F)c2)c1` [Compound 14, 1-(3-(3,4-difluorobenzyloxy)phenyl)thiourea], with below 1 µM.
